Target: wild-type A1AT (M) (Homo sapiens, UniProt P01009)
Test: not given
Details: cited from earlier work

wild-type A1AT (M), sequence (P01009 25-418): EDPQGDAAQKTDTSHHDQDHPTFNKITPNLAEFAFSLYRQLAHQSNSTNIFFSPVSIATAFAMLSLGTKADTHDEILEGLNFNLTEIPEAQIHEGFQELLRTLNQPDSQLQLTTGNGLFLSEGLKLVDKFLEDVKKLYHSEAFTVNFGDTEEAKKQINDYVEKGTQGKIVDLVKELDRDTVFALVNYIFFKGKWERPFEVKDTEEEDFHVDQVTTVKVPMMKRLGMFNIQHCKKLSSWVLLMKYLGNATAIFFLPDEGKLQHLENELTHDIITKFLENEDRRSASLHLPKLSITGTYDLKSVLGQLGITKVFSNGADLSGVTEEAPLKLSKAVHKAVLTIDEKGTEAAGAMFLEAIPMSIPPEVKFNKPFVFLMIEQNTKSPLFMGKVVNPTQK

| Compound | binding to wild-type A1AT (M) |
| --- | --- |
| O=S(=O)(O)c1cccc2c(-c3ccc(Nc4ccccc4)c4c(S(=O)(=O)O)cccc34)ccc(Nc3ccccc3)c12 [bis-ANS, 4,4′-dianilino-1,1′-binaphthyl-5,5′-disulfonate] | not to wild-type A1AT (M) |

Target: T1, Z A1AT (Homo sapiens, UniProt P01009, E366K)
T1 construct: expressed in transfected cells; host or cells: HEK-Z (human embryonic kidney cells stably transfected with the human Z A1AT gene)
Test: A1AT cell secretion assay using HEK-Z cells
Type: cell-based
Details: 300 nM, 48 h, supernatant A1AT by ELISA, read-out: Median A1AT % increase over vehicle at 300 nM
Procedure: HEK-Z cells, a human embryonic kidney cell line stably transfected with the human Z A1AT gene, were plated into 96 well plates (3.0×10^5 cells/ml with 200 μl of media/well) overnight at 37° C. in a humidified atmosphere containing 5% CO2. Following incubation cells were washed with 200 μl serum-free media three times and media was replaced with treatments in quadruplicate using serum free media containing either vehicle, 10 μM suberanilohydroxamic acid (SAHA) or a compound of the invention (at concentrations of 10, 33, 100 and 333 nM) for 48 h in a 37° C. incubator in a final volume of 200 μl. At the end of the incubation step the supernatants were removed from the wells, centrifuged at 1000×g at 4° C. for 10 min and were assayed for human A1AT levels by ELISA (Human Serpin A1/α1-antitrypsin duo set ELISA, R& D Systems, DY1268) per manufacturer's instructions.
Briefly, a 96 well plate was coated with human A1AT capture antibody overnight at room temperature (1:180 dilution from stock, 100 μl final volume/well). The capture antibody was then removed and wells washed three times with 300 μl wash buffer (0.05% Tween 20 in PBS) and then 200 μl reagent diluent ([…]) was incubated in each well for 1 h at room temperature. Diluted samples, standards (125, 250, 500, 1000, 2000, 4000 and 8000 pg/ml A1AT) or blanks were then added to each well in duplicate and the plates were covered with a plate sealer and left at room temperature for 2 h. At the end of the sample incubation step, samples were removed and all wells washed as previously and 100 μl detection antibody (1:180 dilution from stock) was added to each well and incubated for a further 2 h at room temperature. Following incubation with detection antibody, supernatant was removed and wells were washed as previously and 100 μl streptavidin-HRP solution (1:200 dilution from stock) was added to each well for 20 min in the dark. After which, 50 μl stop solution (2M H2SO4) was added and optical density (OD) of each well was read at 450 nm with 570 nm blank subtracted from each well using a microplate reader. A 4-parameter logistic curve was constructed using GraphPad Prism 7 and A1AT concentrations were determined in each sample by interpolation from a standard curve and multiplying by the appropriate dilution factor.

T1 sequence (P01009 25-418 E366K): as the sequence (P01009 25-418) above, with E342K counted along it

| activation at 0.3 µM [%] | Compound |
| --- | --- |
| 175 | CN(Cc1ccccc1)C(=O)c1ccc(Cn2c(=O)cc[nH]c2=O)cc1 [Example 8, N-benzyl-4-((2,6-dioxo-3,6-dihydropyrimidin-1(2H)-yl)methyl)-N-methylbenzamide] |
| 175 | CNC(=O)c1ccc(Cn2ccc(=O)[nH]c2=O)cc1 [Example 2, 4-((2,4-dioxo-3,4-dihydropyrimidin-1(2H)-yl)methyl)-N-methylbenzamide] |
| 170 | O=C(NCc1ccc(F)cc1)c1ccc(Cn2ccc(=O)[nH]c2=O)cc1 [Example 4, 4-((2,4-dioxo-3,4-dihydropyrimidin-1(2H)-yl)methyl)-N-(4-fluorobenzyl)benzamide] |
| 180 | CN(CC(F)(F)F)C(=O)c1ccc(Cn2c(=O)cc[nH]c2=O)cc1 [Example 9, 4-((2,6-dioxo-3,6-dihydropyrimidin-1(2H)-yl)methyl)-N-methyl-N-(2,2,2-trifluoroethyl)benzamide] |
| 190 | CC(C)NC(=O)c1ccc(Cn2ccc(=O)[nH]c2=O)cc1 [Example 3, 4-((2,4-dioxo-3,4-dihydropyrimidin-1(2H)-yl)methyl)-N-isopropylbenzamide] |
| 170 | CC(C)N(C)C(=O)c1ccc(Cn2c(=O)cc[nH]c2=O)cc1 [Example 7, 4-((2,6-dioxo-3,6-dihydropyrimidin-1(2H)-yl)methyl)-N-isopropyl-N-methylbenzamide] |
| 130 | CN(C)C(=O)c1ccc(Cn2ccc(=O)[nH]c2=O)cc1 [Example 1, 4-((2,4-dioxo-3,4-dihydropyrimidin-1(2H)-yl)methyl)-N,N-dimethylbenzamide] |
| 140 | CN(C)C(=O)c1ccc(Cn2c(=O)cc[nH]c2=O)cc1 [Example 5, 4-((2,6-dioxo-3,6-dihydropyrimidin-1(2H)-yl)methyl)-N,N-dimethylbenzamide] |
| 190 | CCN(C)C(=O)c1ccc(Cn2c(=O)cc[nH]c2=O)cc1 [Example 6, 4-((2,6-dioxo-3,6-dihydropyrimidin-1(2H)-yl)methyl)-N-ethyl-N-methylbenzamide] |
